Patent US12492373B2, “Production method for nerve tissue” (Racthera Co., Ltd., priority 2014, dated 2025)

What was measured:
[1] = test system: human iPS cells (1231A3 strain); assay: Immunostaining of aggregate sections for retinal tissue markers Chx10, Rx; format: cell-based; conditions: day 20
Experimental: Here, as step 3, culturing was performed under the following condition 1 and condition 2: Under condition 1(+BMP), on day 6 after the start of suspension culturing, the medium was changed to a medium free of Y27632 and containing human recombinant BMP4 (manufactured by R&D) such that the final concentration of exogenous human recombinant BMP4 was 1.5 nM (55 ng/ml) (FIG. 6B, D). Under condition 2(−BMP), on day 6 after the start of suspension culturing, a half amount of the medium was changed to a medium free of Y27632 and free of a BMP signal transduction pathway activating substance, without adding exogenous human recombinant BMP4 (FIG. 6A, C).
The thus-prepared cell aggregates on day 23 after the start of suspension culturing, which were produced from the above iPS cells that underwent a preconditioning treatment in step 1 as a starting material were fixed with 4% para-formaldehyde to prepare frozen sections. These frozen sections were immunostained for Chx10 (anti-Chx10 antibody, Exalpha, sheep), which is one of the retinal tissue markers, or Rx (anti-Rx antibody, Takara, guinea pig), which is one of the retinal tissue markers. These immunostained sections were observed under an inverted fluorescence microscope.
Cell aggregate were prepared according to the method described in Example 8 under conditions in which human iPS cells using StemFit medium as a feeder-free medium were used as a starting material, TGFβR inhibiting substance (SB431542) or BMPR inhibiting substance (LDN193189) was used in step 1, Shh signal transduction pathway activating substance was used in step 2, and BMP signal transduction pathway activating substance was added or not added in step 3. Neural tissues were formed in all the aggregates formed under all these conditions on day 23 after the start of suspension culturing. The above cell aggregates were fixed with 4% para-formaldehyde to prepare frozen sections. These frozen sections were immunostained for Chx10 (anti-Chx10 antibody, Exalpha, sheep), which is one of the retinal tissue markers, or Rx (anti-Rx antibody, Takara, guinea pig), which is one of the retinal tissue markers. These immunostained sections were observed under an fluorescence microscope. […] Furthermore, it was found from the analysis of serial sections that, in a neural tissue having a high (not less than 95%) proportion of Chx10-positive cells, Rx is also strongly positive (FIG. 9B, D, F, H).
Cell aggregates were prepared according to the method described in Example 10 by using, as a starting material, human iPS cells using Essential 8 medium as a feeder-free culturing, under conditions that TGFβR inhibiting substance (SB431542) are used in step 1, a Shh signal transduction pathway activating substance are used in step 2, and a BMP signal transduction pathway activating substance are added or are not added in step 3. The cell aggregates on day 18 after the start of suspension culturing were each fixed with 4% para-formaldehyde to prepare frozen section. These frozen sections were immunostained for Chx10 (anti-Chx10 antibody, Exalpha, sheep), which is one of the retinal tissue markers, or Rx (anti-Rx antibody, Takara, guinea pig), which is one of the retinal tissue markers, and observed under a fluorescence microscope. […] Furthermore, it was found from the analysis of serial sections that, in a neural tissue having a high (not less than 95%) proportion of Chx10-positive cells, Rx is also strongly positive. […]
A Cell aggregate was formed on day 18 after the start of suspension culturing under every conditions, and a neural tissue was formed (FIG. 14, upper panel). The above cell aggregates on day 18 after the start of suspension culturing were each fixed with 4% para-formaldehyde to prepare frozen section. […]

[2] = test system: human iPS cells (1231A3 strain); assay: Neural tissue / neuroepithelium formation in cell aggregates, bright field observation; format: cell-based; conditions: day 20
Experimental: The above human iPS cells were treated with the cell dispersion solution by using TrypLE Select (Life Technologies), further dispersed into single cells by pipetting operation, and the above human iPS cells dispersed into single cells were suspended in 100 μl of a serum-free medium at 1.2×10^4 cells per well of a non-cell-adhesive 96-well culture plate ([…], manufactured by SUMITOMO BAKELITE), and subjected to suspension culturing at 37° C., 5% CO2. As the serum-free medium (gfCDM+KSR) therefor, a serum-free medium which is a 1:1 mixture of F-12 medium and IMDM medium supplemented with 10% KSR, 450 μM 1-monothioglycerol, 1× Chemically defined lipid concentrate was used. At the time of the start of suspension culturing (day 0 after the start of suspension culturing, start of step 2), Y27632 (final concentration 20 μM) was added to the above serum-free medium. By day 2 after the start of suspension culturing, cell aggregates were formed under both conditions with preconditioning and conditions without preconditioning (step 2 completed, step 3 start). On day 3 after the start of suspension culturing, a serum-free medium (50 μl) free of Y27632 was added. On day 6 or later after the start of suspension culturing, a half amount of the medium was changed to the above serum-free medium free of Y27632 once per 2-4 days. In the half-medium change operation, a half volume, namely 75 μl, of the medium in the culture vessel was discarded, the above fresh serum-free medium (75 μl) was added to make the total medium amount 150 μl. […]
At the time of the start of suspension culturing (day 0 after the start of suspension culturing, start of step 2), the cells were cultured under the following 2 conditions including condition 1 and condition 2. As condition 1(+SAG), at the time of the start of suspension culturing, Y27632 (final concentration 20 μM) and SAG (Shh signal transduction pathway activating substance, 300 nM) were added to the above serum-free medium. As condition 2(−SAG), at the time of the start of suspension culturing, Y27632 (final concentration 20 μM) was added to the above serum-free medium and SAG was not added. By day 2 after the start of suspension culturing, cell aggregates were formed (step 2 completed, step 3 start) under both conditions. On day 3 after the start of suspension culturing, a medium (50 μl) free of Y27632, SAG and containing human recombinant BMP4 (manufactured by R&D) was added such that the final concentration of exogenous human recombinant BMP4 was 1.5 nM (55 ng/ml). On day 6 after the start of suspension culturing, a half amount of the medium was changed with a serum-free medium free of Y27632, SAG and human recombinant BMP4. Thereafter, a half amount of the medium was changed, once every 2-4 days, with the above serum-free medium free of Y27632, SAG, and human recombinant BMP4.
The thus-prepared cells were subjected to bright field observation on day 18 after the start of suspension culturing under an inverted microscope (KEYENCE) (FIG. 15).
At the time of the start of suspension culturing (day 0 after the start of suspension culturing, start of step 2), the cells were cultured under the following 2 conditions including condition 1 and condition 2. As condition 1(+SAG), at the time of the start of suspension culturing, Y27632 (final concentration 20 μM) and SAG (Shh signal transduction pathway activating substance, final concentration 30 nM) were added to the above serum-free medium. As condition 2(−SAG), at the time of the start of suspension culturing, Y27632 (final concentration 20 μM) was added to the above serum-free medium and SAG was not added. By day 2 after the start of suspension culturing, cell aggregates were formed under both conditions (step 2 completed, step 3 start). […]

[3] = A83-01 0.5 μM 1 day in step 1, SAG 30 nM in step 2, BMP4 1.5 nM on day 3

Compound | proportion of Chx10-positive cells in the total cells ([1]; A83-01 0.5 μM and SAG 300 nM in step 1, substance added in step 2 (SAG 30 nM, Purmorphamine 0.2 μM or human recombinant Shh 300 ng/ml), BMP4 1.5 nM on day 3) | proportion of Chx10-positive cells in the total cells [1, 3] | cell aggregate and neural tissue formation [2, 3] | cell aggregate and neural tissue formation ([2]; step 1 for 1 day: A83-01 0.5 μM alone or with SAG 300 nM, Purmorphamine 0.2 μM, or human recombinant Shh 50 ng/ml or 300 ng/ml, SAG 30 nM in step 2, BMP4 1.5 nM on day 3)
c1ccc2c(Oc3nc(Nc4ccc(N5CCOCC5)cc4)c4ncn(C5CCCCC5)c4n3)cccc2c1 [Purmorphamine, 9-cyclohexyl-N-[4-(4-morpholinyl)phenyl]-2-(1-naphthalenyloxy)-9H-purin-6-amine] | about 90% |  |  | 
Cc1cccc(-c2nn(C(=S)Nc3ccccc3)cc2-c2ccnc3ccccc23)n1 [A83-01, 3-(6-methyl-2-pyridinyl)-N-phenyl-4-(4-quinolinyl)-1H-pyrazole-1-carbothioamide] |  | about 20% | a neural tissue can be formed efficiently | a neural tissue can be produced efficiently
